In PubChem BioAssay (NCI):
Values joined by “and” are separate entries in the source; they are usually repeats but may differ in a detail not shown here. Equal entries are not always repeated.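 Following 48 hours of exposure in 96-well plates, responses at five concentrations were used to interpolate endpoints linearly. At the GI50, growth is halved. TGI: concentration producing complete growth inhibition.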

Key:
Assay in all cases: NCI tumour cell line growth inhibition, 48 h
TK-10 renal = system: TK-10 renal
SW-620 colon = system: SW-620 colon
MALME-3M melanoma = system: MALME-3M melanoma
HOP-62 NSCLC = system: HOP-62 NSCLC
OVCAR-5 ovarian = system: OVCAR-5 ovarian
SF-295 CNS = system: SF-295 CNS
HL-60(TB) leukemia = system: HL-60(TB) leukemia
RPMI-8226 leukemia = system: RPMI-8226 leukemia
NCI-H226 lung = system: NCI-H226 lung
EKVX NSCLC = system: EKVX NSCLC
OVCAR-4 ovarian = system: OVCAR-4 ovarian
SF-268 CNS = system: SF-268 CNS
K-562 leukemia = system: K-562 leukemia
MOLT-4 leukemia = system: MOLT-4 leukemia
PC-3 prostate = system: PC-3 prostate
MDA-N = system: MDA-N
UACC-62 melanoma = system: UACC-62 melanoma
M14 melanoma = system: M14 melanoma
HCC-2998 colon = system: HCC-2998 colon

Compound | TGI (TK-10 renal) | TGI (SW-620 colon) | TGI (MALME-3M melanoma) | TGI (HOP-62 NSCLC) | TGI (OVCAR-5 ovarian) | TGI (SF-295 CNS) | TGI (HL-60(TB) leukemia) | TGI (RPMI-8226 leukemia) | TGI (NCI-H226 lung) | TGI (EKVX NSCLC) | TGI (OVCAR-4 ovarian) | TGI (SF-268 CNS) | TGI (K-562 leukemia) | TGI (MOLT-4 leukemia) | TGI (PC-3 prostate) | TGI (MDA-N) | TGI (UACC-62 melanoma) | TGI (M14 melanoma) | GI50 (OVCAR-4 ovarian) | TGI (HCC-2998 colon)
COC(=O)c1ccccc1Nc1ccccc1C(=O)OC | > 100 µM | > 100 µM | 96.8 µM | > 100 µM | > 100 µM | > 100 µM | > 100 µM | > 100 µM | 71.6 µM | > 100 µM | > 100 µM | > 100 µM | > 100 µM | > 100 µM | > 100 µM | > 100 µM | > 100 µM | > 100 µM |  | 
N#CCCN(CCC#N)c1ccc(/C=C2\N=C(c3ccccc3)N(c3ccccc3)C2=O)cc1 | > 100 µM | > 100 µM | > 100 µM | > 100 µM | > 100 µM | > 100 µM | > 100 µM | > 100 µM | > 100 µM | > 100 µM | > 100 µM |  | > 100 µM | > 100 µM | > 100 µM | > 100 µM | > 100 µM | > 100 µM |  | 
CC(=O)Oc1ccc2c3c1[C@@H]1O[C@@H]1c1cccc(c1-3)[C@@H]1O[C@H]21 | 6.12 µM |  |  | 3.96 µM | 3.42 µM | 3.83 µM | 4.87 µM |  | 84.2 µM |  | 5.48 µM | 5.04 µM | > 100 µM | > 100 µM |  | 3.32 µM | 3.44 µM | 3.27 µM | 2.39 µM | 
O=C(CSCC(=O)N/N=C/c1ccncc1)N/N=C/c1ccncc1 | > 100 µM | > 100 µM | > 100 µM | > 100 µM | > 100 µM | > 100 µM | > 100 µM | > 100 µM | > 100 µM | > 100 µM | > 100 µM | > 100 µM | > 100 µM | > 100 µM | > 100 µM |  | > 100 µM | > 100 µM |  | > 100 µM
Cc1c(C=C(C#N)C#N)c(=O)n(C)c(=O)n1C | > 100 µM | > 100 µM | > 100 µM | > 100 µM | > 100 µM | > 100 µM | > 100 µM | > 100 µM | > 100 µM | > 100 µM | > 100 µM | > 100 µM | > 100 µM | > 100 µM | > 100 µM | > 100 µM | > 100 µM | > 100 µM |  | 
CC(=O)c1cccc(NC(=O)/C(=N\NC(=S)NN)C2C(=O)Nc3ccccc3S2=O)c1 (configuration not stated) | > 100 µM | > 100 µM | > 100 µM | > 100 µM | > 100 µM | > 100 µM | > 100 µM | > 100 µM | > 100 µM | > 100 µM |  | > 100 µM | > 100 µM | > 100 µM | > 100 µM | > 100 µM | > 100 µM | > 100 µM |  | 
OCC(O)C(O)C(C=NNc1ncnc2ccc(Br)cc12)=NNc1ncnc2ccc(Br)cc12 (configuration not stated) | > 100 µM | > 100 µM |  | 25 µM and > 100 µM | 88 µM and > 100 µM | > 100 µM | > 100 µM | > 100 µM |  | 20.9 µM and > 100 µM | 23.7 µM and > 100 µM | 25 µM and > 100 µM | > 100 µM | 12.1 µM and > 100 µM | 77.4 µM and > 100 µM | > 100 µM |  | 4.91 µM and 17.4 µM |  | 
